Each structure is given as a SMILES string.

Data set [1] is described as follows: Excitation and fluorescence wavelength by FL4500 fluorescence spectrophotometer. As to conditions: aqueous solution; for λem / λex: 10 mg/mL DMSO solution diluted 500-fold with distilled water; for Excitation wavelength λex / Fluorescence wavelength λem / Stokes shift λem − λex: 10 mg/mL DMSO solution diluted 500-fold with distilled water (Table 2).
Data set [2] concerns central nervous system tissues of juvenile zebrafish (7 dpf). The data set can be described thus: Labeling the central nervous system tissue of live 7 dpf juvenile zebrafish by immersion in labeling solution. As to conditions: for Labeling property / Fluorescence sensitivity: labeling solution 1 μg/mL.
Experimental: Subsequently, the labeling solution 1 in the well was removed and replaced by 1 mL of distilled water. This operation was repeated three times. Then, juvenile zebrafish was removed from the well and embedded in 5% low melting point agarose gel on a slide glass so as to restrict movement, and the state of labeling in the central nervous system tissues were observed from the lateral side of zebrafish by a fluorescence stereomicroscope (manufactured by Leica Microsystems, MZ16FA). Also, the brain nerve tissues were observed from the parietal region by a confocal microscope (manufactured by Carl Zeiss, Inc., Pascal Exciter).
[3] abbreviates: 7 dpf juvenile zebrafish, one hour.
Where [4] appears, read: juvenile zebrafish, one hour (Table 2).

Turning to `Cn1c(=O)cc2c3c(c(NC4CCCCC4)ccc31)C(=O)c1ccccc1-2` [(8)], in data set [1], the λem was found to be 619 and the λex is given as 599. The Labeling property entry in data set [2] (setting [3]) is on record as “++”. The “State of labeling of optic nerve, optic tract, superior colliculus (optic tectum), pituitary gland, tectospinal (tectobulbar) tract and reticular formation” value in data set [2] (7 dpf juvenile zebrafish, one hour, fluorescence stereomicroscope and confocal microscope) was “intensely labeled”.
As to `Cn1c(=O)cc2c3c(c(NCc4ccccc4)ccc31)C(=O)c1ccccc1-2` [(9)], in data set [1], the λem worked out at 556 and the λex is 480. The Labeling property result in data set [2] (setting [3]) was “++”.
In data set [1], `CCN(CC)c1ccc2cc3c(oc2c1)c(C#N)c(=N)n1c2ccccc2nc31` [(10)] returned a λem of 577 and a λex of 556. Besides, the Labeling property entry in data set [2] (setting [3]) was “++”.
As to `CCN(CC)c1ccc2cc3c(oc2c1)c(C#N)c(=O)n1c2ccccc2nc31` [(11)], in data set [1], the λem is 576 and the λex was found to be 555. The Labeling property result in data set [2] (setting [3]) is recorded as “+”.
In data set [1], `CCCCNc1ccc2c3c(cccc13)C(=O)N(CCCC)C2=O` [(12)] registered a λem of 551 and a λex of 466. Besides, the Labeling property result in data set [2] (setting [3]) was “++”.
The corresponding values for `CCN1C(=S)N(c2ccccc2)C(=O)/C1=C/C=C1/Sc2ccccc2N1CC` [(14)] are 560, 530 and “++”.
Take `CCN(CC)c1ccc2cc(-c3nc4ccccc4s3)c(=O)oc2c1` [Compound 15]: in data set [1], the “Excitation wavelength λex” value is listed as 469, the “Fluorescence wavelength λem” value was 555 and the “Stokes shift λem − λex” value was 86. In data set [2] (setting [4]), the Fluorescence sensitivity entry is recorded as “++” and the Labeling property entry is given as “++”.
On to `COc1ccc2cc(-c3nc4ccccc4[nH]3)c(=N)oc2c1` [Compound 16], for which, in data set [1], the “Excitation wavelength λex” value was 380, the “Fluorescence wavelength λem” value was 470 and the “Stokes shift λem − λex” value is on record as 90. In data set [2] (setting [4]), the Fluorescence sensitivity result was “+” and the Labeling property result is reported as “+”.
For `N=c1oc2ccc3ccccc3c2cc1-c1nc2ccccc2[nH]1` [Compound 17], in data set [1], the “Excitation wavelength λex” value is 410, the “Fluorescence wavelength λem” value is reported as 490 and the “Stokes shift λem − λex” value is 80. Moreover, in data set [2] (setting [4]), the Fluorescence sensitivity result is on record as “+” and the Labeling property entry is “+”.
Take `CCN(CC)c1ccc2cc(-c3nc4ccccc4[nH]3)c(=N)oc2c1` [Compound 18]: in data set [1], the “Excitation wavelength λex” value stood at 464, the “Fluorescence wavelength λem” value is recorded as 514 and the “Stokes shift λem − λex” value is 50. Also, in data set [2] (setting [4]), the Fluorescence sensitivity result is “++” and the Labeling property result is given as “++”.
Regarding `COc1ccc2cc(-c3nc4ccccc4[nH]3)c(=O)oc2c1` [Compound 20], in data set [1], the “Excitation wavelength λex” value worked out at 380, the “Fluorescence wavelength λem” value is given as 470 and the “Stokes shift λem − λex” value came out at 90. Also, in data set [2] (setting [4]), the Fluorescence sensitivity result was “+” and the Labeling property result was “+”.
For the compound `COc1cccc2cc(-c3nc4ccccc4[nH]3)c(=O)oc12` [Compound 22], in data set [1], the “Excitation wavelength λex” value was found to be 360, the “Fluorescence wavelength λem” value is reported as 510 and the “Stokes shift λem − λex” value is listed as 150. Moreover, in data set [2] (setting [4]), the Fluorescence sensitivity result is reported as “+” and the Labeling property result is given as “+”.
With `CCN(CC)c1ccc2cc(-c3nc4cc(Cl)ccc4o3)c(=O)oc2c1` [Compound 23], in data set [1], the “Excitation wavelength λex” value came out at 422, the “Fluorescence wavelength λem” value came out at 476 and the “Stokes shift λem − λex” value worked out at 54. Further, in data set [2] (setting [4]), the Fluorescence sensitivity entry is “+” and the Labeling property result was “++”.
As for `Cc1ccc2oc(=O)c(-c3nc4ccccc4[nH]3)cc2c1` [Compound 24], in data set [1], the “Excitation wavelength λex” value is listed as 380, the “Fluorescence wavelength λem” value was found to be 490 and the “Stokes shift λem − λex” value was 110. Also, in data set [2] (setting [4]), the Fluorescence sensitivity result is reported as “+” and the Labeling property entry is “+”.

These data come from US20130280169A1, “CENTRAL NERVOUS SYSTEM TISSUE-LABELING COMPOSITION, METHOD FOR LABELING CENTRAL NERVOUS SYSTEM TISSUE, AND SCREENING METHOD USING CENTRAL NERVOUS SYSTEM TISSUE-LABELING COMPOSITION” (CANON KABUSHIKI KAISHA, priority 2009, published 2013).
